Like-named read-outs stand apart in the source and are kept apart here.
What was measured:
murine CSF1R = biological target: T1, murine CSF1R (Mus musculus, UniProt P09581); experiment: CSF1R inhibition in RAW264.7 cells (western blot of pCSF1R); format: cell-based
T1 construct: Western blot analysis of total lysates (40 µg/lane) from mouse RAW264.7 cells treated as indicated; endogenous in cells; host or cells: RAW264.7 (murine macrophages)
T1 sequence (P09581 20-977): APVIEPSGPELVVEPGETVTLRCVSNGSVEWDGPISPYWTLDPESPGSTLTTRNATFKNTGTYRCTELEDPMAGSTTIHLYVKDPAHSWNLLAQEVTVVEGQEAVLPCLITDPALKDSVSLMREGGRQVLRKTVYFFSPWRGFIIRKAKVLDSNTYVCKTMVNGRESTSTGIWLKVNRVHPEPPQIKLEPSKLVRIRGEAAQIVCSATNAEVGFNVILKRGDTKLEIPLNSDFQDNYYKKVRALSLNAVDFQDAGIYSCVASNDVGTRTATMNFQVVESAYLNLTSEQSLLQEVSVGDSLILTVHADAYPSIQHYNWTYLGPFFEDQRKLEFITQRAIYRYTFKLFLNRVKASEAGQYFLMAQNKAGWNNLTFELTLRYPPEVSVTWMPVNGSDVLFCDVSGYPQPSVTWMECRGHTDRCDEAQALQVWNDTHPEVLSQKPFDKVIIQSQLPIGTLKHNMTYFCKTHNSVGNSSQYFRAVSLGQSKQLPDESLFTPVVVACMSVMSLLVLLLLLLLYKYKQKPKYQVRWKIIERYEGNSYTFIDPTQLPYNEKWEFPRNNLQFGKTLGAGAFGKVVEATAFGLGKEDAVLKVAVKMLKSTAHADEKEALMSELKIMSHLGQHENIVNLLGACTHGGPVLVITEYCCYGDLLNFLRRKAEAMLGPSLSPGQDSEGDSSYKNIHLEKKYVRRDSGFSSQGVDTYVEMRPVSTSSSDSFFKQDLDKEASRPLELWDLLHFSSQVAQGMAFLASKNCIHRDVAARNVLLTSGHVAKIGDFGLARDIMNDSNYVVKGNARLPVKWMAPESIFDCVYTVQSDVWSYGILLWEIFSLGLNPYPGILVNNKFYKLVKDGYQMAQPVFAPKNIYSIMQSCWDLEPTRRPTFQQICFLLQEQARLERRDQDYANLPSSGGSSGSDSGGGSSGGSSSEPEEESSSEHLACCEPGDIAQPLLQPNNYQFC
Method: RAW264.7 cells (10^6) were seeded into cell culture dishes 6 cm in diameter and incubated in 4 mL RPMI/10% fetal bovine serum (Biochrom) for 24 h at 37 °C in a humidified 5% CO2 atmosphere. Cells were washed once with phosphate-buffered saline (PBS) and starved in 3 mL RPMI/0.1% bovine serum albumin for another 24 h. Cells were then treated for 1 h at 37 °C with drugs at the indicated final concentrations, with 0.5% DMSO as vehicle control, or left untreated, and finally stimulated for 2 min at 37 °C with 100 ng/mL recombinant mouse CSF1 (R&D Systems) by adding 1 mL prewarmed starving medium containing 400 ng/mL CSF1. Dishes were placed on ice and cells were immediately washed with ice-cold PBS and lysed with 50 µL lysis buffer (50 mM HEPES pH 7.5, 150 mM NaCl, 1.5 mM MgCl2, 10% glycerol, 1% Triton X-100, 0.5% desoxycholate, 0.2% sodium dodecyl sulfate, 1 mM ethylene glycol-bis[β-aminoethyl ether]-N,N,N′,N′-tetraacetic acid, 100 mM NaF, 10 mM Na4P2O7, 1 mM Na3VO4, 1% Phosphatase Inhibitor Cocktail 3 [Sigma-Aldrich], 1 mM phenylmethyl sulfonyl fluoride, Complete Protease Inhibitor Cocktail [Roche CustomBiotech; 1 tablet/10 mL], and 50 U/mL Benzonase [Sigma-Aldrich]). Lysed cells were scraped into Eppendorf tubes, incubated on ice for 20 min, and centrifuged at 4 °C for 10 min at 13,000 rpm; supernatants (lysates) were transferred into new tubes and stored at −80 °C.
Protein concentrations were determined using Pierce bicinchoninic acid assay (Thermo Fisher Scientific) and 40 µg/lane of total lysate was separated by SDS-PAGE on 4–12% Criterion XT Bis–Tris Gels (Bio-Rad) and subsequently transferred to polyvinylidene difluoride membranes using the Trans Blot Turbo Blotting System (Bio-Rad). For antigen detection, membranes were blocked with PBS Odyssey blocking reagent (LI-COR Biosciences) for 1 h at room temperature (RT). Primary antibodies were incubated overnight at 4 °C and the fluorescent secondary antibodies were incubated for 1 h at RT. After each antibody incubation, blots were washed with PBS with 0.05% Tween 20 (Carl Roth) for 15–30 min at RT. Fluorescent signals were quantitatively captured using the Odyssey DLx Infrared Imaging System (LI-COR Biosciences) and the half-maximal inhibitory concentration (IC50) values were calculated using GraphPad software (version 7 or newer).

CCL2 = CCL2 in MC38 tumors; format: in vivo, mouse; details: REG 5 and 10 mg/kg/day
Method: For tumors, snap-frozen tissue was subjected to cryogenic grinding using a Mixer Mill MM 400 and stainless steel beads (7 mm in diameter; Retsch) and subsequently lysed in Tris Lysis Buffer (Meso Scale Diagnostics). The lysates were centrifuged at 25,000 g at 4 °C for 10 min, protein concentrations were determined using the 660 nm protein assay kit (Pierce), and 2–20 μg of lysate was used for CCL2 analysis. CCL2 concentrations were related to the amounts of tumor tissue taken for the lysis procedure.
Five analysis of variance (ANOVA) models were applied to analyze the log10-transformed values of the tumor weight in the CT26 study, the CCL2 levels in the tumor in the CT26 and MC38 studies, and the CCL2 levels in the PB in the CT26 and MC38 studies. The standard assumption of equal variances between treatment groups was applied for all endpoints, except for CCL2 levels in the tumor in the MC38 study, for which unequal variances between treatment groups were allowed. A negative binomial regression model was applied to evaluate percentages of CD115^hi and F4/80^hi cells within the CD45^+ cell population in PB and tumor tissue, respectively.
In vivo passaging was initiated by transplanting fragments of cryo-preserved MC38 tumors of early passages (<p5) subcutaneously into 6–8-week-old female C57BL/6 mice. […]

IC50 (murine CSF1R; RAW264.7 cells, drug 1 h, CSF1 100 ng/mL 2 min, mean ± SD (replicates), M-4, M-5 from pCSF1R bands without relating to total CSF1R, read-out: Mean kinase IC50 values: P(Y559)CSF1R [WB]): 59 ± 16 nM
IC50 (murine CSF1R; RAW264.7 cells, drug 1 h, CSF1 100 ng/mL 2 min, mean ± SD (replicates), M-4, M-5 from pCSF1R bands without relating to total CSF1R, read-out: Mean kinase IC50 values: P(Y721)CSF1R [WB]): 27 ± 14 nM
IC50 (murine CSF1R; approximate value of the discussion, read-out: IC50, murine CSF1R in RAW264.7 macrophages): ~30 nM
Structure (SMILES): CNC(=O)c1cc(Oc2ccc(NC(=O)Nc3ccc(Cl)c(C(F)(F)F)c3)c(F)c2)ccn1 [REG, Regorafenib]
CCL2 concentrations in MC38 tumors (CCL2): dose dependently increased
